In general, IC50 refers to the concentration that inhibits the measured activity by half. Broadly, the CC50 is the concentration that lowers cell viability or growth by half.

Molecules are shown by their SMILES. Like-named read-outs stand apart in the source and are kept apart here.

One data set addresses CXCR4 (Homo sapiens, UniProt P61073). Kind of data set: effects on the activation of CXCR4 receptor. The note with it: at the concentration of 10,000 nM.
The next data set concerns the target CCR5 receptor (Homo sapiens, UniProt P51681). Kind of data set: [35S]GTPγS binding assay. The format is biochemical. An excerpt: [^35S]GTPγS binding assay
CCR5 receptor binds to agonists and changes its conformation which enables it to interact with and activate G protein, a heterotrimer which consists of subunits α and βγ. The capability of G protein α subunit binding to GTP depends on the effect between CCR5 and the agonists, therefore, the amount of α subunit bound GTP should reflect the agonists activity on the CCR5 receptor. In the GTPγS binding assay, [^35S]GTPγS is resistant to the GTPase activity of α subunit, and thus cannot be hydrolyzed when bound to G protein, making it accurate to reflect the receptor activation. Radiolabled [^35S]GTPγS can also serve as marker for detection in place of GTP. When CCR5 is not activated, α subunit is bound to GDP, but when CCR5 is activated, α subunit binds to [^35S]GTPγS, therefore, measurement of the number of the α subunit-bound ^35S-GTPγS can reflect the CCR5 activation level.
CCR5 activation of G-protein was measured according to assays below:
Permanent cell line expressing CHO of CCR5 (available at Euroscreen S.A., Belgium) was lysed by lysis buffer (5 mM Tris HCl, pH 7.5, 5 mM EDTA and 5 mM EGTA), and centrifuged at 15,000×g for 10 min. Cell membrane was resuspended with reaction buffer (5 mM Tris HCl, pH 7.5, 5 mM MgCl2, 1 mM EGTA, 100 mM NaCl), and protein concentrations were determined using Bioford assay (Bio-rad). [^35S]GTPγS binding assay was performed in the 100 μl reaction buffer system, which contains 10 ug membrane protein, 40 uM GDP and 0.5 nM [^35S]GTPγS (1200 Ci/mmol). After adding the study compounds, the system was vortexed and placed on ice for 5 min, and then CCR5 agonist was added (10 nM RANTES or 30 nM MIP1β). After vortexing, the reaction tubes were incubated at 30° C. for 1 h. After the reaction was complete, the reaction tubes were placed on ice and diluted with PBS to terminate the reaction. After suction through the GF/C filter membrane under vacuum, the membrane bound radioactivity was measured with a scintillation counter. Basal binding was measured without presence of agonist, and non-specific binding was measured in the presence of 10 mM nonisotopical GTPγS. The binding ratio of [^35S]GTPγS was calculated according to 100×[c.p.m.sample−c.p.m. non-specific]/[c.p.m.basal−c.p.m. non-specific]. IC50 was the compound concentration at which half of the [^35S]GTPγS binding induced by 10 nM RANTES or 30 nM MIP1β was inhibited, and the value was obtained from the concentration-inhibition curve (6-7 points for concentrations of each compound).
In general terms: GTPγS resists hydrolysis and so accumulates on activated G proteins.

Data set [1] deals with peripheral blood monouclear cells (PBMC), Jurket. Kind of data set: MTT cytotoxicity assay. The format is cell-based. The note with it: at 10,000 nM. The protocol: (§1) C. MTT Cytotoxicity Assay
(§2) Cells were prepared as single cell suspension, and cell densities were adjusted according to the cell size and cell features. Cells were inoculated with 100 ul culture media into 96 well plates, and incubated in 37° C. incubator (5% CO2, saturated humidity). The seeding densities were as follows: peripheral blood monouclear cells (PBMC) 10^5 cells /well, Jurket 4×10^4 cells/well. 24 h after cell inoculation, the compounds to be tested were added and incubated with cells. 48 h after inoculation, 10 μl MTT (Sigma, USA, 5 mg/ml, diluted with PBS and stored at −20° C.) was added to each well, and incubated for another 4 h in 37° C. incubator. Then add 50 μl formazane solvent (10%SDS-5%isopropanol−0.01M HCl) and incubate overnight. Determine OD570/OD630 nm at spectrophotometer, and calculate CC50 according to the inhibition curve.
In general terms: Formazan colour is commonly taken as a measure of viable cells.

The nature of another data set: MTT cytotoxicity assay. The note with it: human, peripheral blood mononuclear cells (PBMC) and Jurkat cells; MTT. The format is cell-based. The procedure:
as §1, §2

For a further data set, the target named is T1, CCR1 (Homo sapiens, UniProt P32246).
T1 sequence (P32246 1-355): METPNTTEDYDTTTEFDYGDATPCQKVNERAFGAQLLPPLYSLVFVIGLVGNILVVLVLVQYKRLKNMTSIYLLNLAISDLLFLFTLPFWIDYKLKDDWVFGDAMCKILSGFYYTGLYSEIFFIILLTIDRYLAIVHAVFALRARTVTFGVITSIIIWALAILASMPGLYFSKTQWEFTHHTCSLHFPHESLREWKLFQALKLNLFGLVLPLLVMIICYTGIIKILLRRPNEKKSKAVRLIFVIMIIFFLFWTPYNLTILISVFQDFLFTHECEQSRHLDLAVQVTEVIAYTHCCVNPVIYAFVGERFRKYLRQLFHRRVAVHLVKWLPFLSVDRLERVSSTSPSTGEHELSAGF
Kind of data set: effects on the activation of CCR1 receptor. The settings on record: at the concentration of 10,000 nM.

Data set [2] has as its system HEK 293 cells expressing human CCR5 receptors (293CCR5). Kind of data set: Chemotaxis assay. It is filed as cell-based. The settings on record: chemotaxis caused by 10 nM RANTES, read-out: IC50 on cell chemotaxis.
Method: The procedures were as follows:
The assay is performed with a 48 well plate (AP48, Neuroprobe Inc., USA) and 8 uM filter membrane (25×80 mm). The filter membrane was pre-immersed in rat tail collagen for at least 2 h. The filter membrane was taken out and dried on a super-clean bench, then the filter membrane was immersed in 0.1% BSA-MEM. HEK 293 cells expressing human CCR5 receptors (293CCR5) (available at Euroscreen S.A., Belgium) were digested with D.T. for 1 min, and pelleted by centrifugation at 200 g. Resuspend the cells in 0.1% BSA-MEM, count and dilute the cell suspension to 3×10^6 cells/ml. Fill each well with 26.5 μl tll of a chemokine dilution or 1% BSA MEM, place the filter membrane and cover a lid on the well, add 50 μl of the cells suspension to each well. When testing the compound antagonism, the compounds to be tested were added to the cell suspension, and pre-incubated at 37° C. for 20 min. Then place the plate in 37° C. incubator, and incubate for 6 h. Take out of the filter membrane and remove the cells in the well, fix the filter membrane in 4% polyformaldehyde solution at 4° C. overnight. The filter membrane was taken out the next day and stained with crystal violet for at least 2 h, then wash with water and allow it to dry. Scan the filter membrane, and calculate the shades with Scion Image. […]
A further data set can be described thus: water solubility. The settings on record: mesylate compared with II-a-a. The format is physicochemical.
Setting [3] is: Table I, [35S]GTPγS binding, read-out: IC50.
The mark [4] stands for this setting: [35S]GTPγS binding initiated by 10 nM RANTES, read-out: IC50(nM) ± S.E.

Sequence of CXCR4 (P61073 whole entry, species assumed): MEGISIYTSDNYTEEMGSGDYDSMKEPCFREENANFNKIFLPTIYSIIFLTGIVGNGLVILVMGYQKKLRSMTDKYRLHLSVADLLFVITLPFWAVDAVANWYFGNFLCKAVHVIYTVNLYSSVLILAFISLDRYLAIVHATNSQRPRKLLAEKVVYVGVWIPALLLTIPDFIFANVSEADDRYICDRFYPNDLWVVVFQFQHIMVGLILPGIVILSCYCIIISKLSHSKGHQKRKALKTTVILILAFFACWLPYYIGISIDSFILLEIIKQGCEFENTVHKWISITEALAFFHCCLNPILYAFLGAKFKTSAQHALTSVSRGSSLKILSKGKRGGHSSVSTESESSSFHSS
Sequence of CCR5 receptor (P51681 whole entry): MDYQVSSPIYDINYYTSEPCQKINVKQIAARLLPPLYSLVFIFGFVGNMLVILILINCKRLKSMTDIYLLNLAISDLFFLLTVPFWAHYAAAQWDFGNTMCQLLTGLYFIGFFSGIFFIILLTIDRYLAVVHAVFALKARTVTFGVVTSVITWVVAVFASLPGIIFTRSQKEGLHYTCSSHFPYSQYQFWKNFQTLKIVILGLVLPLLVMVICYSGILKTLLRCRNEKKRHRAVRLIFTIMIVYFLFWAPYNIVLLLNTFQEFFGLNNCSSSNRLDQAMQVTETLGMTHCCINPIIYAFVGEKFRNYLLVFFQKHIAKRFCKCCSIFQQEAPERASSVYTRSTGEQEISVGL

As to `C=CCN(C(=O)OCc1ccc([N+](=O)[O-])cc1)C1CCN(CC2CN(C(=O)c3ccccc3I)CC2(O)c2ccccc2)CC1` (stereo not drawn) [III-a-c, 4-nitrobenzyl allyl(1-((4-hydroxy-1-(2-iodobenzoyl)-4-phenylpyrrolidin-3-yl)methyl)piperidin-4-yl)carbamate], the “activation or antagonism of CXCR4 receptor” value on CXCR4 was “do not activate or antagonize”. Also, the half-maximal inhibitory concentration (IC50) on CCR5 receptor (setting [3]) and at CCR5 receptor (setting [4]) was 24.9 ± 8.8 nM in each case. In addition, the cytotoxicity on cells entry in data set [1] was “no significant cytotoxicity”. Further, in the data set “MTT cytotoxicity assay”, the 50% cytotoxic concentration (CC50) at 24 h is about 30000 nM. The “activation or antagonism of CCR1 receptor” value on CCR1 is “do not activate or antagonize”.
Regarding `CCN(C(=O)OCc1ccccc1)C1CCN(CC2CN(Cc3ccccc3)CC2(O)c2ccccc2)CC1` (stereo not drawn) [II-a-a, Benzyl 1-[(1-benzyl-4-hydroxy-4-phenylpyrrolidin-3-yl)methyl]piperidin-4-yl (ethyl)carbamate], the “activation or antagonism of CXCR4 receptor” value on CXCR4 was “do not activate or antagonize”. In addition, the IC50 on CCR5 receptor (setting [3]) and at CCR5 receptor (setting [4]) was 401 ± 87.5 nM throughout. In addition, the cytotoxicity on cells entry in data set [1] is “no significant cytotoxicity”. This compound also gave a half-maximal cytotoxic concentration (CC50) at 24 h in the data set “MTT cytotoxicity assay” of about 30000 nM. Besides, the “activation or antagonism of CCR1 receptor” value on CCR1 is “do not activate or antagonize”.
As to `C=CCN(C(=O)OCc1ccc([N+](=O)[O-])cc1)C1CCN(CC2CN(C(=O)C3CCCC3)CC2(O)c2ccccc2)CC1` (stereo not drawn) [III-a-e, 4-nitrobenzyl allyl(1-((1-(cyclopentanecarbonyl)-4-hydroxy-4-phenylpyrrolidin-3-yl)methyl)piperidin-4-yl)carbamate], at CXCR4, the “activation or antagonism of CXCR4 receptor” value was “do not activate or antagonize”. Moreover, the values for the half-inhibitory concentration (IC50) (on CCR5 receptor (setting [3]); on CCR5 receptor (setting [4]); in data set [2]) were 5.3 ± 0.6 nM, 5.3 ± 0.6 nM and about 30 nM, respectively. Further, the cytotoxicity on cells entry in data set [1] is “no significant cytotoxicity”. Besides, the CC50 at 24 h in “MTT cytotoxicity assay” is about 30000 nM. Besides, the “activation or antagonism of CCR1 receptor” value on CCR1 is reported as “do not activate or antagonize”.
Consider `C=CCN(C(=O)OCc1ccc([N+](=O)[O-])cc1)C1CCN(CC2CN(C(=O)c3cccc4ccccc34)CC2(O)c2ccccc2)CC1` (stereo not drawn) [III-a-d, 4-nitrobenzyl 1-((1-(1-naphthoyl)-4-hydroxy-4-phenylpyrrolidin-3-yl)methyl)piperidin-4-yl(allyl)carbamate], for which the “activation or antagonism of CXCR4 receptor” value on CXCR4 is on record as “do not activate or antagonize”. The IC50 at CCR5 receptor (setting [3]) and at CCR5 receptor (setting [4]) was 26.8 ± 2 nM throughout. Also, in data set [1], the cytotoxicity on cells entry is on record as “no significant cytotoxicity”. The same compound returned a cytotoxic concentration (CC50) at 24 h in “MTT cytotoxicity assay” of about 30000 nM. Further, at CCR1, the “activation or antagonism of CCR1 receptor” value is on record as “do not activate or antagonize”.
Regarding `CCN(C(=O)OCc1ccccc1)C1CCN(CC2CN(Cc3ccccc3)CC2(O)c2ccccc2)CC1` (stereo not drawn) [mesylate of II-a-a], the 50% inhibitory concentration (IC50) on CCR5 receptor (b360, read-out: IC50) stood at 342 ± 72.5 nM. Further, the water solubility increase entry in the data set “water solubility” is “about 10 fold”.
`C=CCN(C(=O)OCc1ccc([N+](=O)[O-])cc1)C1CCN(CC2CN(C(=O)C3CCCCC3)CC2(O)c2ccccc2)CC1` (stereo not drawn) [III-a-f, 4-nitrobenzyl allyl(1-((1-(cyclohexanecarbonyl)-4-hydroxy-4-phenylpyrrolidin-3-yl)methyl)piperidin-4-yl)carbamate]: at CXCR4, the “activation or antagonism of CXCR4 receptor” value is listed as “do not activate or antagonize”. Moreover, the IC50 amounted to 7.3 nM on CCR5 receptor (setting [3]) and 7.3 ± 0.6 nM on CCR5 receptor (setting [4]). Also, the cytotoxicity on cells entry in data set [1] is reported as “no significant cytotoxicity”. The compound also displayed a CC50 at 24 h in the data set “MTT cytotoxicity assay” of about 30000 nM. For the same compound, at CCR1, the “activation or antagonism of CCR1 receptor” value is reported as “do not activate or antagonize”.

For the origin of these results see US20070161634A1, “Compounds as CCR5 antagonists” (priority 2004, published 2007).
